EC50 data for 13 molecules are collected here from patent US10947188B2, “Small molecule ferroptosis inducers” (THE TRUSTEES OF COLUMBIA UNIVERSITY IN THE CITY OF NEW YORK, priority 2016, dated 2021).

In general, EC50 refers to the concentration giving half of the maximal effect. A low value points to greater potency.

For this assay, the system named is HT-1080 cells. As to the kind of experiment: Lethality of commercially available CIL41/70 structural analogs. Particulars: Homo sapiens, tested once in technical triplicates. The assay is classed as cell-based. How it is done:
1,000 cells per 36 μl were seeded in each well in 384-well plates. Lethal compounds were dissolved, and a twofold, 12-point dilution series was prepared in DMSO. Compound solutions were further diluted with media at 1:25, and 4 μl per well of the diluted solutions was added to cell cultures immediately after cells were seeded. […] When other cell-death-modulating compounds (100 nM sodium selenite, 1 μM cerivastatin, 100 μg/mL mevalonic acid) were used in cotreatments, they were supplemented to cell culture for 24 h before lethal compounds were added to cell culture, after which cells were further incubated for 24 h at 37° C. under 5% CO2. On the day of the viability measurement, we added 10 μl per well of 50% Alamar Blue diluted in media (Life Technologies) and further incubated the cells at 37° C. for 6 h. Fluorescence intensity (excitation/emission: 530/590) was measured with a Victor 3 plate reader (PerkinElmer), and the normalized viability was calculated as VL=(IL−I0)/(IV−I0), where VL, I0, IV, and IL are the normalized viability and the raw fluorescence intensities from the wells containing media, cells treated with a vehicle (negative control), and cells with the lethal compound (L), respectively. When the effect of a chemical modulator (M) on L was calculated, we instead used the equation VL|M=(IM,L−I0)/(IM,V−I0), where VL|M, IM,L and IM,V are the normalized viability, and fluorescence intensity from cells treated with […], respectively. The viability was typically measured in biological triplicate unless otherwise specified. A representative dose-response curve, the mean and standard error of normalized viability from one replicate were plotted. HT-1080 viability after modulator treatments corresponding to FIG. 3C and FIGS. 5E-5F is available in FIGS. 19A-19C.
Their lethality was tested once in HT-1080 cells in technical triplicates.

SMILES strings stand for the structures. Converted amounts (≈) assume the structure as drawn.

Consider `COc1ccccc1C/C(N)=N/OC(=O)c1ccc2c(c1)OCO2` [A05], for which the EC50 is 5.04 µg/mL (≈ 15.4 µM). On to `N/C(Cc1ccc(Cl)cc1Cl)=N\OC(=O)C1CCCCC1` [AS1], for which the EC50 is greater than 20 µg/mL.

On to `N/C(Cc1ccc(Cl)cc1Cl)=N\OC(=O)/C=C/c1ccccc1` [AS2], for which it took 12.3 µg/mL (≈ 35.1 µM) to reach a half-maximal effect (EC50).

With `CC(C)(C)c1ccc(C(=O)O/N=C(\N)Cc2cccs2)cc1` [B02], the EC50 was determined as 3.3 µg/mL (≈ 10.4 µM). In turn, `CCc1nc(C)ccc1OC/C(N)=N/OC(C)=O` [CB1] showed an EC50 greater than 20 µg/mL. With `N/C(Cc1ccc([N+](=O)[O-])cc1)=N\OC(=O)C1CCCCC1` [CB2] the figure was greater than 20 µg/mL; with `Cc1ccccc1OCC(=O)O/N=C(\N)Cc1ccc(Cl)cc1` [CB3], greater than 20 µg/mL; with `N/C(Cc1ccc(Cl)cc1)=N\OC(=O)COc1ccccc1Cl` [CB4], greater than 20 µg/mL. The molecule `COc1ccccc1C/C(N)=N/OC(=O)COc1ccc(C(C)(C)C)cc1` [CB5] registered an EC50 greater than 20 µg/mL.

`N/C(Cc1ccc([N+](=O)[O-])cc1)=N\OC(=O)COc1cccc2ccccc12` [CB6] had a concentration for a half-maximal effect (EC50) greater than 20 µg/mL. Turning to `CC(C)(C)c1ccc(OCC(=O)O/N=C(\N)Cc2ccc([N+](=O)[O-])cc2)cc1` [CB7], the EC50 is greater than 20 µg/mL. For `COc1ccc(C/C(N)=N/OC(=O)Cc2ccc(Cl)cc2)cc1OC` [CB8], the EC50 is greater than 20 µg/mL. Take `N/C(Cc1ccc([N+](=O)[O-])cc1)=N\OC(=O)Cc1ccc(Cl)cc1` [CB9]: the EC50 is greater than 20 µg/mL.
